Test results from ChEMBL document CHEMBL5661955, “ASAP - In vitro cytotoxicity” (2024).
Where “and” joins values, the source holds several entries; their conditions need not be identical. Identical values can stand only once.

Experiments:
[1] = Functional assay to measure dose dependent changes in cell viability from drug treatment in Vero E6 miRFP670 cells (cotreated with P-gp inhibitor, CP100356) that are infected with Dengue virus type 2 New Guinea C. […] Cytotoxicity is reported via via analysis of DAPI count using high-content imager. The assay has been performed by KU Leuven.; type: toxicity, cell-based, Vero C1008; details: chlorocebus sabaeus, p-gp concentration 500 nM
[2] = Functional CPE-based assay to measure dose dependent changes in cell viability from drug treatment in Vero E6 miRFP670 cells (cotreated with P-gp inhibitor, CP100356). Cells are treated with antiviral candidates that have been serially diluted. Cytotoxicity is reported via analysis of MTS assays in uninfected cells. The assay has been performed by KU Leuven.; type: toxicity, Vero C1008; details: chlorocebus sabaeus, p-gp concentration 500 nM
[3] = Functional metabolic assay to measure dose dependent changes in cell viability from drug treatment in Vero E6/TMPRSS2 cells (cotreated with P-gp inhibitor, Elacridar). […] Cytotoxicity is reported via measuring absorbance and analysis of MTT/MTS assays in uninfected cells. The assay has been performed by Icahn School of Medicine at Mount Sinai.; type: toxicity, cell-based, VeroE6/TMPRSS2; details: chlorocebus sabaeus, p-gp concentration 2 uM
[4] = with CP100356 (P-gp inhibitor, concentration not stated)
[5] = Vero E6 miRFP670 cells, with CP100356 (P-gp inhibitor, concentration not stated)
[6] = Vero E6/TMPRSS2 cells, with Elacridar (P-gp inhibitor, concentration not stated)

Compound	CC50 [1, 4]	CC50 [2, 5]	further results
O=C(Nc1ccc2c(c1)CNC2)c1cc(F)cc(-c2c[nH]c(=O)c(F)c2)c1	25.4 µM	> 50 µM	–
CC1=C(c2cc(NC(=O)c3cc(Cl)cc4[nH]ncc34)cc3c2CNC3)CCC1=O	> 50 µM	> 50 µM	–
O=C(Nc1cc(Br)c2c(c1)CNC2)c1cc(F)cc2[nH]ncc12	> 50 µM	> 50 µM	–
O=C(Nc1ccc2c(c1)CNC2)c1cc(F)cc(-c2cnc(C3CC3)s2)c1	16.4 µM	19.7 µM	–
O=C(NCc1cccnc1)[C@H](Nc1ccc2c(c1)CNC2)c1cc(Cl)cc2[nH]ncc12	> 50 µM	8.32 µM	–
O=C(Nc1ccc2c(c1)CNC2)c1cc(F)cc(-c2cccnc2)c1	> 50 µM	15.4 µM	–
COc1cccc(-c2nc3c(C(=O)Nc4ccc5c(c4)CNC5)cc(F)cc3[nH]2)c1	5.1 µM	2.86 µM	–
O=C(Nc1ccc2c(c1)CNC2)c1cccc2c(C3CNC3)n[nH]c12	> 50 µM	> 50 µM	–
O=C1Nc2ccc(C(=O)Nc3ccc4c(c3)CNC4)cc2C1=O	25.7 µM	> 50 µM	–
O=C(Nc1ccc2c(c1)CNC2)c1cccc2c1[C@]1(CCNC1)C(=O)N2	> 50 µM	> 50 µM	–
Cc1ccc(-c2nc3c(C(=O)Nc4ccc5c(c4)CNC5)cc(F)cc3[nH]2)cc1	3 µM	1.42 µM	–
Cn1cc2c(C(=O)Nc3ccc4c(c3)CNC4)cc(F)cc2n1	> 50 µM	> 50 µM	–
C[C@H]1NCc2cc(NC(=O)c3cc(F)cc4[nH]ncc34)ccc21	–	> 50 µM	–
O=C(Nc1ccc2c(c1)CNC2)c1cc(Cl)cc2cn[nH]c12	5 µM	> 50 µM	–
C[C@H]1C(=O)Nc2ccc(C(=O)Nc3ccc4c(c3)CNC4)cc21	> 50 µM	> 50 µM	–
O=C(Nc1ccc2c(c1)CN[C@H]2CC1CC1)c1cc(F)cc2[nH]ncc12	18.7 µM	11.8 µM	–
NCc1csc2cc(C(=O)Nc3ccc4c(c3)CNC4)ccc12	5.74 µM	> 50 µM	–
O=C(Nc1ccc2c(c1)CNC2)c1cc(F)cc2c1CCC2	> 50 µM	33 µM	–
O=C(Nc1ccc2c(c1)CNC2)c1cc(Br)cc2c1nc1n2CCCC1	1.27 µM	0.847 µM	–
CN(c1ccc2c(c1)CNC2)[C@H](C(=O)NCC(F)F)c1cc(Cl)cc(C2CC2)c1	14.3 µM	9.32 µM	–
c1ccc(-c2csc(C3CCN(Cc4c[nH]c5ccccc45)CC3)n2)cc1	> 10 µM	–	CC10 ([3]; veroe6/tmprss2): 0.299 µM and 0.162 µM; CC50 ([3]; veroe6/tmprss2): > 10 µM and 20.1 µM

Compound	CC50 [1, 4]	CC50 [2, 5]	further results
O=C(Nc1ccc2c(c1)CNC2)c1cc(F)cc2[nH]c(-c3cccc(F)c3)nc12	2.47 µM	3.69 µM	–
C=CC[C@H]1NCc2cc(NC(=O)c3cc(F)cc4c3CC(=O)N4)ccc21	> 50 µM	> 50 µM	–
O=C(Nc1ccc2c(c1)CNC2)c1cc(Cl)cc2cc[nH]c12	19.7 µM	5.91 µM	–
C=CC[C@H]1NCc2cc(NC(=O)c3cc(Cl)cc4[nH]ncc34)ccc21	3.12 µM	11.8 µM	–
O=C(Nc1cc2c(c(-c3c[nH]c(=O)c(F)c3)c1)CNC2)c1cc(F)cc2[nH]ncc12	> 50 µM	> 50 µM	–
CCCNC(=O)[C@H](Nc1ccc2c(c1)CNC2)c1cc(Cl)cc2[nH]ncc12	12.9 µM	> 50 µM	–
O=C(Nc1ccc2c(c1)CN[C@H]2C[C@H](O)CO)c1cc(F)cc2[nH]ncc12	31.2 µM	> 50 µM	–
O=C(Nc1ccc2c(c1)CNC2)c1cc(Cl)cc(N2CCCC2)c1	13.2 µM	5.83 µM	–
O=C(NCCCn1ccnc1)[C@H](Nc1ccc2c(c1)CNC2)c1cc(Cl)cc(C2CC2)c1	> 50 µM	11.5 µM	–
CC(=O)Nc1cc(Br)cc(C(=O)Nc2ccc3c(c2)CNC3)c1	0.561 µM	> 50 µM	–
N#Cc1cccc(-c2nc3c(C(=O)Nc4ccc5c(c4)CNC5)cc(Cl)cc3[nH]2)c1	> 50 µM	6.67 µM	–
O=C(Nc1ccc2c(c1)CNC2)c1cc(Cl)cc2c1cnn2C[C@H]1CCCO1	37.1 µM	26.9 µM	–
NCc1cccc(-c2csc3cc(C(=O)Nc4ccc5c(c4)CNC5)ccc23)c1	3.57 µM	5.68 µM	–
Cc1cccc(-c2nc3c(C(=O)Nc4ccc5c(c4)CNC5)cc(F)cc3[nH]2)c1	0.838 µM	2.76 µM	–
O=C(Nc1ccc2c(c1)CNC2)c1ccc2c(C3=CCNCC3)csc2c1	18.8 µM	47.1 µM	–
O=C(Nc1ccc2c(c1)CNC2)c1cccc2nc(O)ccc12	> 50 µM	36.5 µM	–
O=C(Nc1ccc2c(c1)CNC2)c1cc(F)c2[nH]ccc2c1	> 50 µM	48.1 µM	–
NCc1ccc(-c2csc3cc(C(=O)Nc4ccc5c(c4)CNC5)ccc23)cc1	4.14 µM	31.9 µM	–
O=C(Nc1ccc2c(c1)CNC2)c1cc(Br)cc2[nH]c(=O)[nH]c12	4.79 µM	> 50 µM	–
O=C(Nc1ccc2c(c1)CNC2)c1cc(F)cc(-c2cn[nH]c2)c1	37.2 µM	> 50 µM	–
CO[C@H]1C[C@H](n2ncc3c(C(=O)Nc4ccc5c(c4)CNC5)cc(Cl)cc32)C1	47.5 µM	14 µM	–

Compound	CC50 [1, 4]	CC50 [2, 5]	further results
O=C(Nc1ccc2c(c1)CNC2)c1cc(F)cc2nn(-c3ccccn3)nc12	–	–	CC50 ([1]; vero c1008): 7.3 µM and 1.92 µM; CC50 ([2]; vero c1008): 7.85 µM and 1.85 µM
O=C(Nc1ccc2c(c1)CN[C@H]2C1CC1)c1cc(F)cc2[nH]ncc12	–	> 50 µM	–
CC(C)CNC(=O)[C@H](Nc1ccc2c(c1)CNC2)c1cc(Cl)cc2[nH]ncc12	17 µM	> 50 µM	–
N#Cc1cccc(-c2nc3c(C(=O)Nc4ccc5c(c4)CNC5)cc(F)cc3[nH]2)c1	20.7 µM	29.2 µM	–
O=C(Nc1ccc2c(c1)CNC2)c1cc(F)cc2[nH]c(-c3cnc(C4CC4)o3)nc12	1.86 µM	–	CC50 ([1]; vero c1008): 2.55 µM; CC50 ([2]; vero c1008): 3.86 µM and 1.41 µM
Cc1ncc(-c2cc(F)cc(C(=O)Nc3ccc4c(c3)CNC4)c2)o1	12.5 µM	11.9 µM	–
C=Cc1cc2c(cc1NC(=O)c1cc(F)cc3[nH]ncc13)CNC2	> 50 µM	> 50 µM	–
CNC(=O)[C@H](Nc1ccc2c(c1)CNC2)c1cc(Cl)cc2[nH]ncc12	5.53 µM	> 50 µM	–
CNC(=O)[C@H](Nc1ccc2c(c1)CNC2)c1cc(Cl)cc2[nH]c(-c3ccccc3)nc12	> 50 µM	–	CC50 ([2]; vero c1008): 9.01 µM and 21.4 µM
Cc1cnccc1-c1cc(NC(=O)c2cc(F)cc3[nH]ncc23)cc2c1CNC2	> 50 µM	> 50 µM	–
O=C(Nc1ccc2c(c1)CNC2)c1cc(Cl)cc2c1cnn2C1CCC1	12.8 µM	9.91 µM	–
O=C(Nc1ccc2c(c1)CNC2)c1cc(Cl)cc2[nH]c(-c3c[nH]c(=O)c(Br)c3)nc12	14.3 µM	> 50 µM	–
O=C(Nc1cc2c(cc1Br)CNC2)c1cc(F)cc2[nH]ncc12	> 50 µM	46.1 µM	–
O=C(O)Cc1c[nH]c2cc(-c3cc(Cl)cc(NC(=O)OCc4ccccc4)c3)ccc12	18 µM	32.1 µM	–
O=C(Nc1ccc2c(c1)CN[C@H]2CCO)c1cc(F)cc2[nH]ncc12	42.5 µM	> 50 µM	–
Cc1ncc(-c2cc(F)cc(C(=O)Nc3ccc4c(c3)CNC4)c2)s1	> 50 µM	23.1 µM	–
O=C(Nc1ccc2c(c1)CNC2)c1cc(Cl)cc2[nH]c(-c3cccc(F)c3)nc12	–	> 50 µM	–
NCCCCc1ccc(NC(=O)c2cc(Cl)cc(NC(=O)OCc3ccccc3)c2)cc1	6.49 µM	–	CC50 [3, 6]: > 50 µM; CC10 ([3]; veroe6/tmprss2): > 50 µM
CC1(C)NCc2cc(NC(=O)c3cc(F)cc4[nH]ncc34)ccc21	–	> 50 µM	–
O=C(Nc1ccc2c(c1)CNC2)c1cc(Cl)cc2[nH]c(-c3ccccc3)nc12	–	2.09 µM	–
C=CC[C@H](Nc1cc(Cl)cc(NC(=O)OCc2ccccc2)c1)c1cccc(-c2nn[nH]n2)c1	–	–	CC50 [3, 6]: > 50 µM; CC10 ([3]; veroe6/tmprss2): 0.105 µM
